Results on one compound are retold here after patent publication US20210369684A1 (MOUNT TAM THERAPEUTICS, INC., priority 2018, published 2021).

SMILES strings stand for the structures.

The assay has as its system 6-OHDA injected mice. Nature of the assay: Anti-TH immunohistochemistry, 6-OHDA-induced striatal denervation. It counts as in vivo, mouse. On the procedure: Immunohistochemistry analysis using anti-tyrosine hydroxylase (TH) antibody was performed in mouse midbrain sections to quantify 6-OHDA-induced striatal denervation in mice injected with 6-OHDA and non-injected (control) sides of the brain. […] In contrast, both the 6-OHDA/rapamycin-treated and the 6-OHDA/Formula II-treated sides of the brain show increased staining with the anti-TH antibody, as indicated by the dark shading in those figures. FIG. 3B presents the mean and standard error of the mean (SEM) of the integrated density of anti-TH antibody staining in the striatum, as well as statistical analysis of the results for the groups of mice.

Take `CO[C@H]1C[C@@H]2CC[C@@H](C)[C@@](O)(C2)C(=O)C(=O)N2CCCC[C@H]2C(=O)O[C@H]([C@H](C)C[C@H]2C[C@H]3C[C@@H]2C[C@@H]3O)CC(=O)[C@H](C)/C=C(\C)[C@@H](O)[C@@H](OC)C(=O)[C@H](C)C[C@H](C)/C=C/C=C/C=C/1C` [Formula II, C37-[(1R,2S,4R,5S)-5-hyhroxybicyclo[2.2.1]heptane] rapamycin]: where the note is “6-OHDA injected mice, FIG. 3A”, the “6-OHDA-induced striatal denervation (anti-TH staining) compared with rapamycin” value is given as “decreased 6-OHDA-induced denervation as compared to rapamycin” and the “6-OHDA-induced striatal denervation (anti-TH staining) compared with vehicle control” value was “decreased 6-OHDA-induced denervation as compared to vehicle control”. The “integrated density of anti-TH staining in striatum, p versus vehicle control” value (one-way ANOVA, FIG. 3B) was below 0.001.
